# Measurements: patent US9113629B2, “4-amino-6-(4-substituted-phenyl)-picolinates and 6-amino-2-(4-substituted-phenyl)-pyrimidine-4-carboxylates and their use as herbicides” (DOW AGROSCIENCES LLC, priority 2013, dated 2015)
# Columns and labels:
# [1] = test system: SETVI: green foxtail (Setaria viridis); assay: Post-emergent Test III, herbicidal activity in wheat and barley; assay type: in vivo; details: for pest or weed control at 35 g/ha / pest or weed control at 70 g/ha / pest or weed control at 140 g/ha: Setaria viridis, post-emergence, 504 h, read-out: Visual Growth Reduction (%) 21 Days After Application SETVI; for pest or weed control at 35 g/ha: 35 g ai/ha; for pest or weed control at 70 g/ha: 70 g ai/ha; for pest or weed control at 140 g/ha: 140 g ai/ha; for GR50 SETVI / GR80 SETVI: probit analysis, 21 days after application; for GR50 SETVI: dose for growth reduction of 50 percent; for GR80 SETVI: dose for growth reduction of 80 percent
# Outline: (§1)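 Plants at the second to third true-leaf stage, grown in a greenhouse at about 18/17 °C with a 14 h photoperiod, were sprayed post-emergence at 187 L/ha with the high rate and ½× to 1/16× serial dilutions in an acetone/DMSO/crop-oil/surfactant carrier. Injury was rated visually at 21 d on a 0–100% scale, and GR20–GR90 were derived by probit analysis.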
# [2] = test system: LOLSS: ryegrass including, Italian ryegrass (Lolium multiflorum), rigid ryegrass (Lolium rigidum), annual ryegrass (Lolium multiflorum subsp. Gaudini); assay: as above; assay type: in vivo; details: probit analysis, 21 days after application; for GR50 LOLSS: dose for growth reduction of 50 percent; for GR80 LOLSS: dose for growth reduction of 80 percent
# Outline: as §1
# [3] = test system: ALOMY: black-grass (Alopecurus myosuroides); assay: as above; assay type: in vivo; details: for pest or weed control at 35 g/ha / pest or weed control at 70 g/ha / pest or weed control at 140 g/ha: Alopecurus myosuroides, post-emergence, 504 h, read-out: Visual Growth Reduction (%) 21 Days After Application ALOMY; for pest or weed control at 35 g/ha: 35 g ai/ha; for pest or weed control at 70 g/ha: 70 g ai/ha; for pest or weed control at 140 g/ha: 140 g ai/ha; for GR50 ALOMY / GR80 ALOMY: probit analysis, 21 days after application; for GR50 ALOMY: dose for growth reduction of 50 percent; for GR80 ALOMY: dose for growth reduction of 80 percent
# Outline: as §1
# [4] = test system: KCHSC: kochia (Kochia scoparia); assay: as above; assay type: in vivo; details: for pest or weed control at 35 g/ha / pest or weed control at 70 g/ha / pest or weed control at 140 g/ha: Bassia scoparia, post-emergence, 504 h, read-out: Visual Growth Reduction (%) 21 Days After Application KCHSC; for pest or weed control at 35 g/ha: 35 g ai/ha; for pest or weed control at 70 g/ha: 70 g ai/ha; for pest or weed control at 140 g/ha: 140 g ai/ha; for GR50 KCHSC / GR80 KCHSC: probit analysis, 21 days after application; for GR50 KCHSC: dose for growth reduction of 50 percent; for GR80 KCHSC: dose for growth reduction of 80 percent
# Outline: as §1
# LAMSS = assay: as above; assay type: in vivo; details: for pest or weed control at 35 g/ha / pest or weed control at 70 g/ha / pest or weed control at 140 g/ha: post-emergence, 504 h, read-out: Visual Growth Reduction (%) 21 Days After Application LAMSS; for pest or weed control at 35 g/ha: 35 g ai/ha; for pest or weed control at 70 g/ha: 70 g ai/ha; for pest or weed control at 140 g/ha: 140 g ai/ha; for GR50 LAMSS / GR80 LAMSS: probit analysis, 21 days after application; for GR50 LAMSS: dose for growth reduction of 50 percent; for GR80 LAMSS: dose for growth reduction of 80 percent
# Outline: as §1
# [5] = test system: TRZSS: wheat, including spring and winter (Triticum aestivum); assay: as above; assay type: in vivo; details: for pest or weed control at 35 g/ha / pest or weed control at 70 g/ha / pest or weed control at 140 g/ha: Triticum aestivum, post-emergence, 504 h, read-out: Visual Growth Reduction (%) 21 Days After Application TRZSS; for pest or weed control at 35 g/ha: 35 g ai/ha; for pest or weed control at 70 g/ha: 70 g ai/ha; for pest or weed control at 140 g/ha: 140 g ai/ha; for GR20 TRZSS: probit analysis, dose for growth reduction of 20 percent, 21 days after application, crop
# Outline: as §1
# [6] = test system: APESV: bentgrass (Apera spica-venti); assay: as above; assay type: in vivo; details: for pest or weed control at 35 g/ha / pest or weed control at 70 g/ha / pest or weed control at 140 g/ha: Apera spica-venti, post-emergence, 504 h, read-out: Visual Growth Reduction (%) 21 Days After Application APESV; for pest or weed control at 35 g/ha: 35 g ai/ha; for pest or weed control at 70 g/ha: 70 g ai/ha; for pest or weed control at 140 g/ha: 140 g ai/ha; for GR50 APESV / GR80 APESV: probit analysis, 21 days after application; for GR50 APESV: dose for growth reduction of 50 percent; for GR80 APESV: dose for growth reduction of 80 percent
# Outline: as §1
# [7] = test system: HORSS: barley, including spring and winter (Hordeum vulgare); assay: as above; assay type: in vivo; details: for pest or weed control at 35 g/ha / pest or weed control at 70 g/ha / pest or weed control at 140 g/ha: Hordeum vulgare, post-emergence, 504 h, read-out: Visual Growth Reduction (%) 21 Days After Application HORSS; for pest or weed control at 35 g/ha: 35 g ai/ha; for pest or weed control at 70 g/ha: 70 g ai/ha; for pest or weed control at 140 g/ha: 140 g ai/ha; for GR20 HORSS: probit analysis, dose for growth reduction of 20 percent, 21 days after application, crop
# Outline: as §1
# [8] = as above; assay type: in vivo, Lolium multiflorum, Lolium rigidum; details: Lolium multiflorum, post-emergence, 504 h, read-out: Visual Growth Reduction (%) 21 Days After Application LOLSS; for pest or weed control at 35 g/ha: 35 g ai/ha; for pest or weed control at 70 g/ha: 70 g ai/ha; for pest or weed control at 140 g/ha: 140 g ai/ha
# Outline: as §1
# [9] = test system: MATSS: scented mayweed (Matricaria chamomilla), pineappleweed (Matricaria matricarioides); assay: as above; assay type: in vivo; details: for pest or weed control at 35 g/ha / pest or weed control at 70 g/ha / pest or weed control at 140 g/ha: Matricaria chamomilla, post-emergence, 504 h, read-out: Visual Growth Reduction (%) 21 Days After Application MATSS; for pest or weed control at 35 g/ha: 35 g ai/ha; for pest or weed control at 70 g/ha: 70 g ai/ha; for pest or weed control at 140 g/ha: 140 g ai/ha; for GR50 MATSS / GR80 MATSS: probit analysis, 21 days after application; for GR50 MATSS: dose for growth reduction of 50 percent; for GR80 MATSS: dose for growth reduction of 80 percent
# Outline: as §1
smiles,measurement,setting,value
Nc1c(F)c(-c2ccc(Br)cc2)nc(C(=O)O)c1Cl [Compound 20],pest or weed control at 35 g/ha,[1],95 to 100%
same,pest or weed control at 70 g/ha,[1],95 to 100%
same,pest or weed control at 140 g/ha,[1],95 to 100%
same,GR50 SETVI,[1],4 g ai/ha
same,GR80 SETVI,[1],10 g ai/ha
same,GR50 LOLSS,[2],25 g ai/ha
same,GR80 LOLSS,[2],>140 g ai/ha
same,pest or weed control at 35 g/ha,[3],75 to 84%
same,pest or weed control at 70 g/ha,[3],75 to 84%
same,pest or weed control at 140 g/ha,[3],75 to 84%
same,GR50 ALOMY,[3],21 g ai/ha
same,GR80 ALOMY,[3],72 g ai/ha
same,pest or weed control at 35 g/ha,[4],95 to 100%
same,pest or weed control at 70 g/ha,[4],95 to 100%
same,pest or weed control at 140 g/ha,[4],95 to 100%
same,GR50 KCHSC,[4],2 g ai/ha
same,GR80 KCHSC,[4],5 g ai/ha
same,pest or weed control at 35 g/ha,LAMSS,95 to 100%
same,pest or weed control at 70 g/ha,LAMSS,95 to 100%
same,pest or weed control at 140 g/ha,LAMSS,95 to 100%
same,GR50 LAMSS,LAMSS,1 g ai/ha
same,GR80 LAMSS,LAMSS,1 g ai/ha
same,pest or weed control at 35 g/ha,[5],85 to 94%
same,pest or weed control at 70 g/ha,[5],85 to 94%
same,pest or weed control at 140 g/ha,[5],85 to 94%
same,GR20 TRZSS,[5],1 g ai/ha
same,pest or weed control at 35 g/ha,[6],85 to 94%
same,pest or weed control at 70 g/ha,[6],85 to 94%
same,pest or weed control at 140 g/ha,[6],85 to 94%
same,GR50 APESV,[6],2 g ai/ha
same,GR80 APESV,[6],12 g ai/ha
same,pest or weed control at 35 g/ha,[7],85 to 94%
same,pest or weed control at 70 g/ha,[7],95 to 100%
same,pest or weed control at 140 g/ha,[7],95 to 100%
same,GR20 HORSS,[7],1 g ai/ha
same,pest or weed control at 35 g/ha,[8],45 to 59%
same,pest or weed control at 70 g/ha,[8],60 to 74%
same,pest or weed control at 140 g/ha,[8],60 to 74%
same,pest or weed control at 35 g/ha,[9],95 to 100%
same,pest or weed control at 70 g/ha,[9],95 to 100%
same,pest or weed control at 140 g/ha,[9],95 to 100%
same,GR50 MATSS,[9],1 g ai/ha
same,GR80 MATSS,[9],1 g ai/ha
N#Cc1ccc(-c2nc(C(=O)O)c(Cl)c(N)c2F)cc1 [Compound 39],pest or weed control at 35 g/ha,[1],30 to 44%
same,pest or weed control at 70 g/ha,[1],45 to 59%
same,pest or weed control at 140 g/ha,[1],60 to 74%
same,GR50 SETVI,[1],68 g ai/ha
same,GR80 SETVI,[1],>140 g ai/ha
same,GR50 LOLSS,[2],82 g ai/ha
same,GR80 LOLSS,[2],>140 g ai/ha
same,pest or weed control at 35 g/ha,[3],0 to 29%
same,pest or weed control at 70 g/ha,[3],45 to 59%
same,pest or weed control at 140 g/ha,[3],45 to 59%
same,GR50 ALOMY,[3],111 g ai/ha
same,GR80 ALOMY,[3],>140 g ai/ha
same,pest or weed control at 35 g/ha,[4],75 to 84%
same,pest or weed control at 70 g/ha,[4],85 to 94%
same,pest or weed control at 140 g/ha,[4],85 to 94%
same,GR50 KCHSC,[4],3 g ai/ha
same,GR80 KCHSC,[4],40 g ai/ha
same,pest or weed control at 35 g/ha,LAMSS,95 to 100%
same,pest or weed control at 70 g/ha,LAMSS,95 to 100%
same,pest or weed control at 140 g/ha,LAMSS,95 to 100%
same,GR50 LAMSS,LAMSS,1 g ai/ha
same,GR80 LAMSS,LAMSS,1 g ai/ha
same,pest or weed control at 35 g/ha,[5],75 to 84%
same,pest or weed control at 70 g/ha,[5],75 to 84%
same,pest or weed control at 140 g/ha,[5],85 to 94%
same,GR20 TRZSS,[5],1 g ai/ha
same,pest or weed control at 35 g/ha,[6],30 to 44%
same,pest or weed control at 70 g/ha,[6],45 to 59%
same,pest or weed control at 140 g/ha,[6],60 to 74%
same,GR50 APESV,[6],70 g ai/ha
same,GR80 APESV,[6],>140 g ai/ha
same,pest or weed control at 35 g/ha,[7],30 to 44%
same,pest or weed control at 70 g/ha,[7],45 to 59%
same,pest or weed control at 140 g/ha,[7],60 to 74%
same,GR20 HORSS,[7],18 g ai/ha
same,pest or weed control at 35 g/ha,[8],30 to 44%
same,pest or weed control at 70 g/ha,[8],45 to 59%
same,pest or weed control at 140 g/ha,[8],60 to 74%
same,pest or weed control at 35 g/ha,[9],95 to 100%
same,pest or weed control at 70 g/ha,[9],95 to 100%
same,pest or weed control at 140 g/ha,[9],95 to 100%
same,GR50 MATSS,[9],1 g ai/ha
same,GR80 MATSS,[9],1 g ai/ha
